Experimental data from the NIST ThermoML archive (doi:10.1021/je3006985).

Legend:
[1] = mn = molality of the nth substance listed, in mol/kg; conditions: 298.15 K, 101 kPa, Liquid
[2] = osmotic coefficient (dimensionless); mn = molality of the nth substance listed, in mol/kg; conditions: 298.15 K, Liquid, Vapor Pressure Osmometer (Knaur K-7000)

CCN(CC)CC(=O)Nc1c(C)cccc1C.Cl [lidocaine hydrochloride] + O
Conditions | mass density, [1] [kg/m3] | osmotic coefficient, [2]
m1 = 0.01004 | 997.37 | 0.879
m1 = 0.02018 | 997.713 | 0.83
m1 = 0.02958 | 998.034 | 0.807
m1 = 0.03474 | 998.184 | 0.8
m1 = 0.03911 | 998.35 | 0.796
m1 = 0.04409 | 998.51 | 0.793
m1 = 0.04809 | 998.641 | 0.792
m1 = 0.05588 | 998.887 | 0.792
m1 = 0.07017 | 999.384 | 0.796
m1 = 0.09322 | 1000.14 | 0.805
m1 = 0.1151 | 1000.85 | 0.812
m1 = 0.141 | 1001.69 | 0.813
m1 = 0.1712 | 1002.65 | 0.805
m1 = 0.188 | 1003.15 | 0.797
m1 = 0.2082 | 1003.81 | 0.785
m1 = 0.2386 | 1004.84 | 0.765
m1 = 0.2675 | 1005.71 | 0.748
m1 = 0.2906 | 1006.37 | 0.736
m1 = 0.3089 | 1006.95 | 0.728
m1 = 0.3399 | 1007.94 | 0.72
m1 = 0.3919 | 1009.45 | 0.718
m1 = 0.4432 | 1011.03 | 0.72
m1 = 0.4982 | 1012.71 | 0.696

CCN(CC)CCOC(=O)c1ccc(N)cc1.Cl [2-diethylaminoethyl p-aminobenzoate hydrochloride] + O
Conditions | mass density, [1] [kg/m3] | osmotic coefficient, [2]
m1 = 0.0158 | 997.809 | 0.885
m1 = 0.01893 | 997.979 | 0.873
m1 = 0.02475 | 998.219 | 0.856
m1 = 0.03023 | 998.477 | 0.843
m1 = 0.03265 | 998.609 | 0.838
m1 = 0.03891 | 998.872 | 0.827
m1 = 0.04358 | 999.105 | 0.82
m1 = 0.04823 | 999.338 | 0.814
m1 = 0.05787 | 999.774 | 0.804
m1 = 0.0712 | 1000.37 | 0.794
m1 = 0.09584 | 1001.52 | 0.781
m1 = 0.1165 | 1002.46 | 0.772
m1 = 0.1438 | 1003.64 | 0.759
m1 = 0.1749 | 1005.05 | 0.741
m1 = 0.1973 | 1005.94 | 0.727
m1 = 0.2187 | 1007.01 | 0.713
m1 = 0.2457 | 1008.14 | 0.694
m1 = 0.2791 | 1009.54 | 0.673
m1 = 0.2997 | 1010.41 | 0.661
m1 = 0.3205 | 1011.32 | 0.65
m1 = 0.3523 | 1012.67 | 0.636
m1 = 0.4061 | 1014.95 | 0.62
m1 = 0.4613 | 1016.97 | 0.609
m1 = 0.517 | 1019.21 | 0.587

CCCCNc1ccc(C(=O)OCCN(C)C)cc1.Cl + O
Conditions | mass density, [1] [kg/m3] | osmotic coefficient, [2]
m1 = 0.01696 | 997.722 | 0.896
m1 = 0.0205 | 997.869 | 0.884
m1 = 0.02526 | 998.076 | 0.871
m1 = 0.0301 | 998.265 | 0.858
m1 = 0.03454 | 998.444 | 0.848
m1 = 0.03897 | 998.614 | 0.839
m1 = 0.04254 | 998.764 | 0.832
m1 = 0.04793 | 998.98 | 0.822
m1 = 0.05807 | 999.405 | 0.805
m1 = 0.06741 | 999.767 | 0.79
m1 = 0.07521 | 1000.07 | 0.778
m1 = 0.08589 | 1000.49 | 0.762
m1 = 0.09567 | 1000.88 | 0.747
m1 = 0.1161 | 1001.66 | 0.716
m1 = 0.1436 | 1002.67 | 0.672
m1 = 0.1726 | 1003.78 | 0.622
m1 = 0.1924 | 1004.46 | 0.587
m1 = 0.2427 | 1006.27 | 0.498
m1 = 0.3009 | 1008.22 | 0.411
m1 = 0.3479 | 1009.67 | 0.367
m1 = 0.4005 | 1011.44 | 0.363
